Legend:
Experiment in all cases: relative viability (nuclei count vs DMSO), 5 days (fraction); higher = more cells survive
[1] = compound: CC(C)C[C@H](NC(=O)[C@H](CCc1ccccc1)NC(=O)CN1CCOCC1)C(=O)N[C@@H](Cc1ccccc1)C(=O)N[C@@H](CC(C)C)C(=O)[C@@]1(C)CO1 [Carfilzomib] + Cc1nc(NC(=O)N2CCC[C@H]2C(N)=O)sc1-c1ccnc(C(C)(C)C(F)(F)F)c1 [Alpelisib] (partner 2 µM)
Outline: (§1)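 Lung cancer cell lines, seeded in 1536-well plates, were treated the following day by pin tool with a single drug or with five library-drug doses (not always all listed) in √10 steps on top of a fixed anchor-drug dose. Cells were fixed and nuclei stained in one step after 5 days, and nuclei were counted. Relative viability is the nuclei count for treated wells divided by that for vehicle wells, reported as medians of duplicate plates.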

[2] = compound: C[C@@H](Oc1cc(-c2cnn(C3CCNCC3)c2)cnc1N)c1c(Cl)ccc(F)c1Cl [Crizotinib] + N=C(N)NC(=N)NCCc1ccccc1 [Phenformin] (partner 250 µM)
Outline: as §1

[3] = compound: O=C(c1cc(Cc2n[nH]c(=O)c3ccccc23)ccc1F)N1CCN(C(=O)C2CC2)CC1 [Olaparib] + CS(=O)(=O)N1CCN(Cc2cc3nc(-c4cccc5[nH]ncc45)nc(N4CCOCC4)c3s2)CC1 [Pictilisib] (partner 1 µM)
Outline: as §1

[4] = compound: O=C(c1cc(Cc2n[nH]c(=O)c3ccccc23)ccc1F)N1CCN(C(=O)C2CC2)CC1 [Olaparib] + CC(=O)c1c(C)c2cnc(Nc3ccc(N4CCNCC4)cn3)nc2n(C2CCCC2)c1=O [Palbociclib] (partner 0.5 µM)
Outline: as §1

[5] = compound: CC(C)C[C@H](NC(=O)[C@H](CCc1ccccc1)NC(=O)CN1CCOCC1)C(=O)N[C@@H](Cc1ccccc1)C(=O)N[C@@H](CC(C)C)C(=O)[C@@]1(C)CO1 [Carfilzomib] + Nc1ncn([C@H]2C[C@H](O)[C@@H](CO)O2)c(=O)n1 [Decitabine] (partner 2 µM)
Outline: as §1

With NCI-H1793 the relative viability ([1]; first compound 0.003162 µM) was 0.767, the relative viability ([1]; first compound 0.01 µM) was 0.804 and the relative viability ([1]; first compound 0.03162 µM) was 0.68. For the same cell line, the relative viability ([1]; first compound 0.1 µM) was 0.356, the relative viability ([2]; first compound 0.03162 µM) was 0.408 and the relative viability ([2]; first compound 0.1 µM) was 0.343. It also gave a relative viability ([2]; first compound 1 µM) of 0.388, a relative viability ([3]; first compound 0.08 µM) of 0.515 and a relative viability ([3]; first compound 0.253 µM) of 0.389. It also gave a relative viability ([3]; first compound 2.53 µM) of 0.251, a relative viability ([3]; first compound 8 µM) of 0.298 and a relative viability ([4]; first compound 0.08 µM) of 0.274. It also gave a relative viability ([4]; first compound 0.253 µM) of 0.302, a relative viability ([4]; first compound 2.53 µM) of 0.327 and a relative viability ([4]; first compound 8 µM) of 0.286. For the same cell line, the relative viability ([5]; first compound 0.001 µM) was 0.494, the relative viability ([5]; first compound 0.003162 µM) was 0.61 and the relative viability ([5]; first compound 0.01 µM) was 0.531. For the same cell line, the relative viability ([5]; first compound 0.03162 µM) was 0.562 and the relative viability ([5]; first compound 0.1 µM) was 0.194.
